Results published in paper PMC4766503, “A novel peptide with potent and broad-spectrum antiviral activities against multiple respiratory viruses” (Scientific Reports, 2016).
Peptide text beside a SMILES is read from it.

Legend:
[1] = test system: endosomal acidification in H1N1-infected MDCK cells; format: cell-based, canine
[2] = test system: H1N1 virus; parameters: species or system BALB/c mice; conditions: mouse, in vivo
[3] = test system: H5N1 virus; parameters: species or system BALB/c mice; conditions: mouse, in vivo
[4] = test system: H7N9 virus; parameters: species or system BALB/c mice; conditions: mouse, in vivo
[5] = test system: H1N1 virus; conditions: for 50% inhibitory concentration (IC50) against H1N1: virus, 1 h
[6] = test system: MDCK cells; conditions: 24 h
[7] = test system: influenza A virus H3N2, H5N1, H7N7 and H7N9; conditions: H7N7 and H7N9, 24 h
[8] = test system: SARS-CoV
[9] = test system: MERS-CoV
[10] = mouse, in vivo
[11] = in vivo
[12] = synthetic P9, water
[13] = biological target: H1N1 viral HA (Influenza A virus, UniProt C3W5S1)
[14] = test system: H1N1 viral NA
[15] = biological target: MERS-CoV S2 (Middle East respiratory syndrome-related coronavirus, UniProt K9N5Q8)
[16] = biological target: MERS-CoV S1 (Middle East respiratory syndrome-related coronavirus, UniProt K9N5Q8)
[17] = test system: SARS-CoV; conditions: in vivo
[18] = test system: HA-cell membrane fusion in 293FT cells expressing HA; conditions: low pH 5.0

H1N1 viral HA, sequence (C3W5S1 entry or part of it, added parts left off): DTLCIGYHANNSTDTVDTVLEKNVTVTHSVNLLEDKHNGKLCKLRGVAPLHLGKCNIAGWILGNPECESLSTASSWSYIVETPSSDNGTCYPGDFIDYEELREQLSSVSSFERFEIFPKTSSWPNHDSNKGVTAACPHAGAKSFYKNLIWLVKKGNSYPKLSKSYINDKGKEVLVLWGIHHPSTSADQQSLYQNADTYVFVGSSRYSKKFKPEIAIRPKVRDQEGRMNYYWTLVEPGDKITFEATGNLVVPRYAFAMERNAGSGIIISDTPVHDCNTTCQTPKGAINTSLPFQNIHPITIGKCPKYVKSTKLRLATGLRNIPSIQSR
MERS-CoV S1, sequence (K9N5Q8 18-751 limits assumed): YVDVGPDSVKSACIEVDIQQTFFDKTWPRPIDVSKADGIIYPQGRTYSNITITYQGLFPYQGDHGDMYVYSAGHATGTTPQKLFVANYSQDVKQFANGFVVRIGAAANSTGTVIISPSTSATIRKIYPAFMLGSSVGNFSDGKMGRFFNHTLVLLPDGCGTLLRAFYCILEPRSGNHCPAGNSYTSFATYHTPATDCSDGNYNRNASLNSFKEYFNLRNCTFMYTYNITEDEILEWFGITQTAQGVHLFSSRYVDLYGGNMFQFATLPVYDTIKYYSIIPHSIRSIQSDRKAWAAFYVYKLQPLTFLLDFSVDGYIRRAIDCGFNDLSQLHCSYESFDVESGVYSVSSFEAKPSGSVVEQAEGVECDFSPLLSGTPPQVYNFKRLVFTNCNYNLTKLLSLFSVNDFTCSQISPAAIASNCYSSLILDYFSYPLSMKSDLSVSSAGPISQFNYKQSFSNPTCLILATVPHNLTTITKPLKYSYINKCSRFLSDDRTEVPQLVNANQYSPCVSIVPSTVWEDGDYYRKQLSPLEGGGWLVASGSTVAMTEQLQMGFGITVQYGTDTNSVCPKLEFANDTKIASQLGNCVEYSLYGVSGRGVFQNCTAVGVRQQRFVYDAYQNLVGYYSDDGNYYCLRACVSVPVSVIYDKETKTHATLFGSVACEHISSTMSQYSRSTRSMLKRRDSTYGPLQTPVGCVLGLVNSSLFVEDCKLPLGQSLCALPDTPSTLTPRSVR
MERS-CoV S2, sequence (K9N5Q8 752-1353 limits assumed): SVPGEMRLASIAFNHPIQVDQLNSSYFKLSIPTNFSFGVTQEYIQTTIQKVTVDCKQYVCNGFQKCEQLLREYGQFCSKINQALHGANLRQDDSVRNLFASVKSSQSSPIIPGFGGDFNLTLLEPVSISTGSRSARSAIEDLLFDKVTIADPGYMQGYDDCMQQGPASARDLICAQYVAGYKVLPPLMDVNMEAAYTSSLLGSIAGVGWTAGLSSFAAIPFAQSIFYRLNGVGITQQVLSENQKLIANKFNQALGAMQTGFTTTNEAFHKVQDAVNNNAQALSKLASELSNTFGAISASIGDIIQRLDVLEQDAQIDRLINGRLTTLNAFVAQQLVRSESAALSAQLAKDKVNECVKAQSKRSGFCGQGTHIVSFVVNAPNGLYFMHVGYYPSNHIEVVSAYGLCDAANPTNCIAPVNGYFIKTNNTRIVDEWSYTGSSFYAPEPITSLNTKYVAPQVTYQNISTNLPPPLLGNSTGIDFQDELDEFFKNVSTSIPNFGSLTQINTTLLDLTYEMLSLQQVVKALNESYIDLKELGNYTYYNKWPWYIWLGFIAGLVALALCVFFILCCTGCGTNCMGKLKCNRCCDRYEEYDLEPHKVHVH

Cl.N [NH4Cl, ammonium chloride, reference compound]
pH lowering (acidification) in endosomes [1]: acidification was abolished

CO/C1=C\C(C)=C\[C@@H](C)[C@@H](O)[C@@H](C)C/C(C)=C/C=C/[C@H](OC)[C@@H]([C@@H](C)[C@@H](O)[C@H](C)[C@@]2(O)C[C@@H](O)[C@H](C)[C@@H](C(C)C)O2)OC1=O [Bafilomycin A1, reference compound]
pH lowering (acidification) in endosomes [1]: acidification was abolished

CC(=O)N[C@H]1[C@H]([C@H](O)[C@H](O)CO)OC(C(=O)O)=C[C@@H]1N=C(N)N [Zanamivir, reference compound]
survival rate, therapeutic [2]: 80%
mice protected from lethal H5N1 challenge, prophylaxis [3]: 50%
mice protected from lethal H5N1 challenge, therapy [3]: 60%
mice protected from lethal H7N9 challenge, prophylaxis [4]: 60%
mice protected from lethal H7N9 challenge, therapy [4]: 70%

CC[C@H](C)[C@H](NC(=O)[C@H](C)NC(=O)CNC(=O)[C@@H](N)CC(N)=O)C(=O)N[C@@H](CS)C(=O)N[C@@H](Cc1c[nH]c2ccccc12)C(=O)NCC(=O)N1CCC[C@H]1C(=O)N[C@@H](CS)C(=O)N1CCC[C@H]1C(=O)N[C@H](C(=O)N[C@@H](C)C(=O)N[C@@H](Cc1ccccc1)C(=O)N[C@@H](CCCNC(=N)N)C(=O)N[C@@H](CCC(N)=O)C(=O)N[C@H](C(=O)NCC(=O)N[C@@H](CC(N)=O)C(=O)N[C@@H](CS)C(=O)NCC(=O)N[C@@H](Cc1c[nH]cn1)C(=O)N[C@@H](Cc1ccccc1)C(=O)N[C@@H](CCCCN)C(=O)N[C@H](C(=O)N[C@@H](CCCNC(=N)N)C(=O)N[C@@H](CS)C(=O)N[C@@H](CS)C(=O)N[C@@H](CCCCN)C(=O)N[C@H](C(=O)N[C@@H](CCCNC(=N)N)C(=O)N[C@@H](CC(=O)O)C(=O)N[C@@H](CCC(=O)O)C(=O)N[C@@H](CC(=O)O)C(=O)O)[C@@H](C)CC)C(C)C)[C@@H](C)CC)[C@@H](C)O [Peptide P9-aci-1] (H-NGAICWGPCPTAFRQIGNCGHFKVRCCKIRDED-OH)
pH lowering (acidification) in endosomes [1]: unaffected
50% inhibitory concentration (IC50) against H1N1 [5]: > 100 µg/mL

CC[C@H](C)[C@H](NC(=O)[C@H](C)NC(=O)CNC(=O)[C@@H](N)CC(N)=O)C(=O)N[C@@H](CS)C(=O)N[C@@H](Cc1c[nH]c2ccccc12)C(=O)NCC(=O)N1CCC[C@H]1C(=O)N[C@@H](CS)C(=O)N1CCC[C@H]1C(=O)N[C@H](C(=O)N[C@@H](C)C(=O)N[C@@H](Cc1ccccc1)C(=O)N[C@@H](CCCNC(=N)N)C(=O)N[C@@H](CCC(N)=O)C(=O)N[C@H](C(=O)NCC(=O)N[C@@H](CC(N)=O)C(=O)N[C@@H](CS)C(=O)NCC(=O)N[C@@H](Cc1c[nH]cn1)C(=O)N[C@@H](Cc1ccccc1)C(=O)N[C@@H](CCCCN)C(=O)N[C@H](C(=O)N[C@@H](CCCNC(=N)N)C(=O)N[C@@H](CS)C(=O)N[C@@H](CS)C(=O)N[C@@H](CCCCN)C(=O)N[C@H](C(=O)N[C@@H](CCCNC(=N)N)C(=O)O)[C@@H](C)CC)C(C)C)[C@@H](C)CC)[C@@H](C)O [Peptide P9] (H-NGAICWGPCPTAFRQIGNCGHFKVRCCKIR-OH)
mice protected from lethal challenge, P9 given 2 h before challenge [2]: 60%
mice protected from lethal challenge, P9 given 4 h before challenge [2]: 30%
mice protected from lethal challenge, P9 given 8 h before challenge [2]: 20%
survival rate, prophylactic [2]: 100%
survival rate, therapeutic [2]: 60%
viral loads in lung tissues [2]: significantly lower
mice protected from lethal H5N1 challenge, prophylaxis [3]: 44%
mice protected from lethal H5N1 challenge, therapy [3]: 50%
mice protected from lethal H7N9 challenge, prophylaxis [4]: 50%
mice protected from lethal H7N9 challenge, therapy [4]: 50%
pH lowering (acidification) in endosomes [1]: acidification was abolished
antiviral activity among short peptides [5]: strongest antiviral activity
50% inhibitory concentration (IC50) against H1N1 [5]: 1.2 µg/mL
50% toxic concentration (TC50) [6]: 380 µg/mL
IC50s against H3N2, H5N1, H7N7 and H7N9 [7]: 1.5 to 4.8 µg/mL
inhibition of SARS-CoV infection [8]: more than 95%
IC50 against SARS-CoV ([8]; 24 h): about 5 μg/ml
inhibition of MERS-CoV infection [9]: more than 95%
IC50 against MERS-CoV ([9]; 24 h): about 5 μg/ml
food consumption or sickness [10]: no obvious reduction of food consumption or sickness
body weight loss, i.n. ([10]; 50 mg/kg): less than 10%
body weight loss, i.p. ([10]; ip, 500 mg/kg): less than 10%
P9 signal on surface of mouse bronchial tubes after administration [11]: almost undetectable level
solubility and stability in water [12]: highly soluble and stable in water
binding to HA [13]: bound to HA
binding to NA [14]: not NA
binding to S2 of MERS-CoV [15]: bound to S2
binding to S1 of MERS-CoV [16]: not S1
virus infection in mouse lungs [17]: significantly inhibited
HA-cell membrane fusion (polykaryon formation) [18]: did not directly inhibit
